The target in experiment [1] is T1, M1 muscarinic acetylcholine receptor (Rattus norvegicus, UniProt P08482).
T1 construct: expressed in transfected cells
T1 sequence (P08482 1-460): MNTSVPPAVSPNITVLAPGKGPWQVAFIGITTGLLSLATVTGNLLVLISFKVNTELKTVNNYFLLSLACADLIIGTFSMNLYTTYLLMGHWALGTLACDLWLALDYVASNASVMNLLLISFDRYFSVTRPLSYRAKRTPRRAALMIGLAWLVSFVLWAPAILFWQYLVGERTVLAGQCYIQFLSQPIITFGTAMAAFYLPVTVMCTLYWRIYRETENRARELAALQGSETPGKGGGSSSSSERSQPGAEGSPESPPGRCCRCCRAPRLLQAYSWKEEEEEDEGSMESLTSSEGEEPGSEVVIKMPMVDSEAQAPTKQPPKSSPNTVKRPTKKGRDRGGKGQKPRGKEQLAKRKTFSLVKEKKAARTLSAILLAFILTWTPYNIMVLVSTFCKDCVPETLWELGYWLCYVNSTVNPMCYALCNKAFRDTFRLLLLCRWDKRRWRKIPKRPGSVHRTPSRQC
In words: In vitro two-photon FRET response of M1-TN-XXL neurofluocytes to bath-applied neurotransmitters. The format is cell-based. The note with it: ACh applied at 10 nM to 10 μM via bath perfusion. The text has this:
The state of each cell is imaged with in vivo two-photon laser scanning microscopy (TPLSM). In another implementation, HEK293 cells were transfected with the Ca^2+-coupled M1 muscarinic receptor and the genetically encoded FRET-based Ca^2+ biosensor TN-XXL. In the presence of acetylcholine (ACh), a M1-mediated Ca^2+ increase is transduced by TN-XXL into a FRET-based optical signal.
ACh-neurofluocytes expressing a muscarinic receptor and fluorescent protein. […] These cells are referred to here as M1-TN-XXL neuro-fluocytes. HEK-293 cells were transduced with lentiviruses modified to carry the M1 muscarinic acetylcholine receptor or the TN-XXL FRET intracellular calcium indicator as transgenes. Clonal cells were selected subsequently based on the highest response to acetylcholine in vitro.
M1-TN-XXL neurofluocytes. ACh-neurofluocytes were tested in vitro for their sensitivity to acetylcholine. […] FIG. 2a provides a diagram of the detection mechanism.

Experiment [2] deals with muscarinic receptors. In words: Response of implanted neurofluocytes to NBM stimulation after intracerebral injection of antagonist.
Experimental: Urethane-anesthetized rats were injected with HEK293 cells loaded with Calcium Green in the cerebral cortex and a bipolar stimulating electrode was implanted in NBM together with ECoG-recording electrodes to detect desynchronization in cerebral cortex upon NBM stimulation.
A similar set of experiments was conducted with stably transfected M1-TN-XXL neurofluocytes.
The target of experiment [3] is T2, ionotropic receptor 5-HT3A (Rattus norvegicus, UniProt P35563).
T2 construct: expressed in transfected cells; host or cells: HEK cells, transient co-transfection with TN-XXL
T2 sequence (P35563 24-483): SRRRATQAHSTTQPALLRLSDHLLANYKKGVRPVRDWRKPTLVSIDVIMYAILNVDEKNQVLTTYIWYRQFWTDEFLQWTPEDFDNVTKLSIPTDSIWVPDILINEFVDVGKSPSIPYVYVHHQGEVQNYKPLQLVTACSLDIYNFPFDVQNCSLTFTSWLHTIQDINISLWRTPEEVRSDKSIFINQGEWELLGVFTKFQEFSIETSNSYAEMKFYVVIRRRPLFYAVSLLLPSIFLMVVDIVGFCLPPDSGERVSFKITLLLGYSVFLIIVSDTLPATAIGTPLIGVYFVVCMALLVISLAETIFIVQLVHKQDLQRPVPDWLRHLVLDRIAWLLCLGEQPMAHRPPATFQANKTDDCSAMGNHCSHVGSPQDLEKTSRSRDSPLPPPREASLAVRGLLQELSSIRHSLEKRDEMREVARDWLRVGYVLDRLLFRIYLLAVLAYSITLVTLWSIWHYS
Put plainly: In vitro response of HEK cells transiently cotransfected with 5-HT3A and TN-XXL to bath-applied serotonin. The note with it: 3-10 μm serotonin applied in the bath. The format is cell-based.

The structures appear in SMILES notation.

`NCCCC(=O)O` [GABA]: the “FRET response / sensitivity of ACh-neurofluocytes to neurotransmitter” value (“FRET response / sensitivity” below) in experiment [1] is recorded as “insensitive”.

For `CN1[C@@H]2CC[C@H]1C[C@@H](OC(=O)C(CO)c1ccccc1)C2` (stereo partly shown) [atropine], the “effect on responses of neurofluocytes to NBM stimulation” value in experiment [2] is reported as “abolished”.

As to `NCCc1ccc(O)c(O)c1` [dopamine], the “FRET response / sensitivity” value in experiment [1] is given as “insensitive”.

`N[C@@H](CCC(=O)O)C(=O)O` [glutamate]: the “FRET response / sensitivity” value in experiment [1] is “insensitive”.

With `NC[C@H](O)c1ccc(O)c(O)c1` [norepinephrine], in experiment [1], the “FRET response / sensitivity” value is “insensitive”.

Take `NCCc1c[nH]c2ccc(O)cc12` [serotonin]: the “FRET response / sensitivity” value in experiment [1] is recorded as “insensitive”. Besides, the “response of 5-HT3A/TN-XXL cells” value in experiment [3] is recorded as “responded robustly”.

The record behind these values is patent US8663604B2, “Method for measuring neurotransmitters in vivo” (The Regents of the University of California, priority 2007, dated 2014).
